For one data set, the target named is Histamine H3 receptor (Homo sapiens, UniProt Q9Y5N1). The experiment in a line: Displacement of [3H] N-alpha methylhistamine from human recombinant H3 receptor expressed in HEK293 cells incubated for 90 min. The data set is classed as cell-based. The following applies: for pKi: read-out: Ki; for Ki: read-out: pKi (converted).
For data set [1], the target named is T1, Amine oxidase [flavin-containing] A (Homo sapiens, UniProt P21397).
T1 sequence (P21397 whole entry): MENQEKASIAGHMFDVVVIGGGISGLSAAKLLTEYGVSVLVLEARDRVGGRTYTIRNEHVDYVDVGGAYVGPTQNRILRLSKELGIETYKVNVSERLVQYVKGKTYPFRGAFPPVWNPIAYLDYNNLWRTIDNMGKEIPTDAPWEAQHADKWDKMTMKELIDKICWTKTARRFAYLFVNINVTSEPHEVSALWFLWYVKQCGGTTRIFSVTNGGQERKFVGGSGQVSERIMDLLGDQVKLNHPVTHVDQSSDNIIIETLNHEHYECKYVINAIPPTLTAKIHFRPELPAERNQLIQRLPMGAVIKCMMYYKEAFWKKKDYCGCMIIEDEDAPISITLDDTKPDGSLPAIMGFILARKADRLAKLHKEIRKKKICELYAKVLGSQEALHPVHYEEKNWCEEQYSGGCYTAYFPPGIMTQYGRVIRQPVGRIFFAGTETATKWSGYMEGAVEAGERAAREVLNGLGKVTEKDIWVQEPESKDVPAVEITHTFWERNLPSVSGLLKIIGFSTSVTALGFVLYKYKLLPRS
Description: Inhibition of human recombinant MAO-A using kynuramine as substrate by discontinuous fluorimetric analysis.

For data set [2], the target named is T2, Amine oxidase [flavin-containing] B (Homo sapiens, UniProt P27338).
T2 sequence (P27338 whole entry): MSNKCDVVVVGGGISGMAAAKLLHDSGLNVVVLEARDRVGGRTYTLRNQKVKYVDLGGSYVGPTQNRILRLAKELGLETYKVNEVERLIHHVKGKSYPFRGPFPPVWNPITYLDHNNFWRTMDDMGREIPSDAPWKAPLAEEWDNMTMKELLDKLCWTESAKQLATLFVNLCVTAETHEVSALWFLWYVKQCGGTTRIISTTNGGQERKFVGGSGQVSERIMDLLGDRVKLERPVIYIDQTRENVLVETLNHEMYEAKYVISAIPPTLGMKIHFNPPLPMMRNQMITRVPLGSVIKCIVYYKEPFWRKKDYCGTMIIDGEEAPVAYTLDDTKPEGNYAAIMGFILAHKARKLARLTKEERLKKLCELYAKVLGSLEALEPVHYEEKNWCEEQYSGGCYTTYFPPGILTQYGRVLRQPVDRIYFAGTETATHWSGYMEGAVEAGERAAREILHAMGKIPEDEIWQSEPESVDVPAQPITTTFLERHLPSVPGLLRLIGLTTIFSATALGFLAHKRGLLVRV
Description: Inhibition of human recombinant MAO-B using kynuramine as substrate by discontinuous fluorimetric analysis.

The species entered for data set [3] is Homo sapiens. The experiment in a line: Selectivity index, ratio of IC50 for human recombinant MAO-A to IC50 for human recombinant MAO-B using kynuramine as substrate.
Data set [4] is described as follows: Cytotoxicity against human SH-SY5Y cells assessed as cell viability at 10 uM measured after 24 hrs by resazurin dye based fluorescence assay relative to control. The following applies: read-out: Activity.
Data set [5] is described as follows: Cytotoxicity against human SH-SY5Y cells assessed as cell viability at 1 uM measured after 24 hrs by resazurin dye based fluorescence assay relative to control. The conditions noted are these: read-out: Activity.
The target in data set [6] is T1, Amine oxidase [flavin-containing] A. Description: Inhibition of human recombinant MAO-A using kynuramine as substrate preincubated for 60 mins followed by substrate addition by discontinuous fluorimetric analysis.
Data set [7] deals with T2, Amine oxidase [flavin-containing] B. The experiment in a line: Inhibition of human recombinant MAO-B using kynuramine as substrate preincubated for 60 mins followed by substrate addition by discontinuous fluorimetric analysis.
Data set [8] is filed under the species Homo sapiens. The experiment in a line: Selectivity index, ratio of IC50 for human recombinant MAO-A using kynuramine as substrate preincubated for 60 mins followed by substrate addition to IC50 for human recombinant MAO-B using kynuramine as substrate preincubated for 60 mins followed by substrate addition.
Data set [9] has as its target Acetylcholinesterase (Electrophorus electricus) (UniProt O42275). Description: Inhibition of electric eel AChE at 10 uM using acetylthiocholine iodide as substrate preincubated for 30 mins followed by substrate addition and measured every 40 secs for 30 mins by Ellman's method relative to control.
The target in data set [10] is Cholinesterase (Equus caballus) (UniProt P81908). Description: Inhibition of equine serum BuChE at 10 uM using acetylthiocholine iodide as substrate preincubated for 30 mins followed by substrate addition and measured every 40 secs for 30 mins by Ellman's method relative to control.
The target of data set [11] is T1, Amine oxidase [flavin-containing] A. Description: Inhibition of human recombinant MAO-A using kynuramine as substrate preincubated for 30 mins followed by substrate addition by discontinuous fluorimetric analysis.
In the next data set the target is Histamine H1 receptor (Homo sapiens, UniProt P35367). Description: Displacement of [3H] pyrilamine from human H1 histamine receptor.
In another data set the target is Histamine H4 receptor (Homo sapiens, UniProt Q9H3N8). The experiment in a line: Displacement of [3H] histamine from human H4 histamine receptor.
The target of another data set is D(2) dopamine receptor (Homo sapiens, UniProt P14416). Description: Displacement of [3H] spiperone from human D2 dopamine receptor.
In another data set the target is D(3) dopamine receptor (Homo sapiens, UniProt P35462). The experiment in a line: Displacement of [3H] spiperone from human D3 dopamine receptor.
Data set [12] addresses T2, Amine oxidase [flavin-containing] B. Description: Inhibition of human recombinant MAO-B using kynuramine as substrate preincubated for 30 mins followed by substrate addition by discontinuous fluorimetric analysis.
The species named for data set [13] is Homo sapiens. Description: Selectivity index, ratio of IC50 for human recombinant MAO-A using kynuramine as substrate preincubated for 30 mins followed by substrate addition to IC50 for human recombinant MAO-B using kynuramine as substrate preincubated for 30 mins followed by substrate addition.
Data set [14] deals with T2, Amine oxidase [flavin-containing] B. The experiment in a line: Irreversible inhibition of human recombinant MAO-B assessed as reduction in enzyme activity at 10 times IC50 using kynuramine as substrate preincubated with compound followed by substrate addition by discontinuous fluorimetric analysis. The following applies: TDE = time-dependent effect.
For data set [15], the target named is T3, Amine oxidase [flavin-containing] B (Rattus norvegicus, UniProt P19643).
T3 sequence (P19643 whole entry): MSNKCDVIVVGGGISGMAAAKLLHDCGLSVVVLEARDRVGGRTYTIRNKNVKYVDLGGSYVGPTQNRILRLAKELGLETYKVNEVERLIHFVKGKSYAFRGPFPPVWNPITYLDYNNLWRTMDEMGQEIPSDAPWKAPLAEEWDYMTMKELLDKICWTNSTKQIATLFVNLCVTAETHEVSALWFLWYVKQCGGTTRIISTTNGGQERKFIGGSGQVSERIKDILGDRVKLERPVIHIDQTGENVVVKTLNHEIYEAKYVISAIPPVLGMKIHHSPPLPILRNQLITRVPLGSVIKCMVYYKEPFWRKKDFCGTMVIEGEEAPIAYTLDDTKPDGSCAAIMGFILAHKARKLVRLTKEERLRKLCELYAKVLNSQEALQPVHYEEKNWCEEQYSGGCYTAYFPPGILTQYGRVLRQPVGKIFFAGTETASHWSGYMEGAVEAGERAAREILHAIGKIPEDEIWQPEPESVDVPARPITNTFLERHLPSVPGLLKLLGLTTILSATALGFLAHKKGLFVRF
The experiment in a line: Inhibition of rat brain MAO-B using [14C]-phenylethylamine as substrate preincubated for 60 mins followed by substrate addition and measured after 20 mins by liquid scintillation counting method.

Data set [16] is described as follows: Cytotoxicity against human SH-SY5Y cells assessed as cell viability at 1 mM and measured after 24 hrs by resazurin dye based fluorescence assay relative to control. The conditions noted are these: read-out: Activity.

pIC50, pKi: −log10 of the molar value.

This is an account of results in ChEMBL document CHEMBL4396932, “Rasagiline derivatives combined with histamine H3 receptor properties” (Bioorg Med Chem Lett, 2019).

Chain of Histamine H3 receptor (Q9Y5N1 whole entry): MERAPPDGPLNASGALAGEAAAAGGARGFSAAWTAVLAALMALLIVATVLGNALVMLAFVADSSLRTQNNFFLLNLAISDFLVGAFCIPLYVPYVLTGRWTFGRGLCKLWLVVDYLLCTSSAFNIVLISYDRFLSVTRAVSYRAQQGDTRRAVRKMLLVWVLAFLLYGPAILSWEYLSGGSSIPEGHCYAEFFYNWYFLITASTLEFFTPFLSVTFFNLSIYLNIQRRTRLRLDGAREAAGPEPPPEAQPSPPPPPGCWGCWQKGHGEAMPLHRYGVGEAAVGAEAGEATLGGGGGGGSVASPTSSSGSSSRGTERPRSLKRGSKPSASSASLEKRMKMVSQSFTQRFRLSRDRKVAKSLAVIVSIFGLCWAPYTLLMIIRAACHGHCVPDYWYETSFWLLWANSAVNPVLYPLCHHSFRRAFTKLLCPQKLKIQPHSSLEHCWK
Chain of Cholinesterase (Equus caballus) (P81908 whole entry): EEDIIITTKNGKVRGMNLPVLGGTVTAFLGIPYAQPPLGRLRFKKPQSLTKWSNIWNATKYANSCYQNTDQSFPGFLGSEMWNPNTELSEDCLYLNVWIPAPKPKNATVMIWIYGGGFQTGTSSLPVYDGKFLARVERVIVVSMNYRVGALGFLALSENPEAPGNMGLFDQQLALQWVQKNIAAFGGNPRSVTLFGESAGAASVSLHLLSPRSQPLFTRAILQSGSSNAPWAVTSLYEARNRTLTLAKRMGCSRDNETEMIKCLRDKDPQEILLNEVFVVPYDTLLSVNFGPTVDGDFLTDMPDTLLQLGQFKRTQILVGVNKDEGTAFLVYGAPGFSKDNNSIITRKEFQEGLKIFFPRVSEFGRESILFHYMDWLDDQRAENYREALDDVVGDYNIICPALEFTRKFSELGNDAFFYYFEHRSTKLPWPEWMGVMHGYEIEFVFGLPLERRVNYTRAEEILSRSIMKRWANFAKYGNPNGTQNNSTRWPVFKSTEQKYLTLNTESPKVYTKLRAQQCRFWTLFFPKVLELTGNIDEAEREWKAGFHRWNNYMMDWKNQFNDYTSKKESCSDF
Chain of Acetylcholinesterase (Electrophorus electricus) (O42275 24-633 limits assumed): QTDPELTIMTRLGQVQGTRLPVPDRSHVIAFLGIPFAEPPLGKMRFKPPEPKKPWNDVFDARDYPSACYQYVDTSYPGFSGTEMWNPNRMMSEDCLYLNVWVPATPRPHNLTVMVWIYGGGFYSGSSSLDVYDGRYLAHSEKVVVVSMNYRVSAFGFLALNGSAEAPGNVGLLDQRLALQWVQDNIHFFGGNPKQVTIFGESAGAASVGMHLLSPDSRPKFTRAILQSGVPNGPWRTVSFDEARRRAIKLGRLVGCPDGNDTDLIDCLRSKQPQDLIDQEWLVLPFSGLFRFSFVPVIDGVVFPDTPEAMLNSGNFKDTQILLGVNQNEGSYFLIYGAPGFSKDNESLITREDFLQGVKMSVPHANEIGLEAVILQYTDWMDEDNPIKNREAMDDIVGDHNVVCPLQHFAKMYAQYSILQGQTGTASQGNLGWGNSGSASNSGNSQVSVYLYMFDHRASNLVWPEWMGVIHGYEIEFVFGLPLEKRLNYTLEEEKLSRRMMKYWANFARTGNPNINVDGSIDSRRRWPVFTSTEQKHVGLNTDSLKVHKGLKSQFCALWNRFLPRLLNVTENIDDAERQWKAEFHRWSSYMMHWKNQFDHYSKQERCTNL
Chain of D(3) dopamine receptor (P35462 whole entry): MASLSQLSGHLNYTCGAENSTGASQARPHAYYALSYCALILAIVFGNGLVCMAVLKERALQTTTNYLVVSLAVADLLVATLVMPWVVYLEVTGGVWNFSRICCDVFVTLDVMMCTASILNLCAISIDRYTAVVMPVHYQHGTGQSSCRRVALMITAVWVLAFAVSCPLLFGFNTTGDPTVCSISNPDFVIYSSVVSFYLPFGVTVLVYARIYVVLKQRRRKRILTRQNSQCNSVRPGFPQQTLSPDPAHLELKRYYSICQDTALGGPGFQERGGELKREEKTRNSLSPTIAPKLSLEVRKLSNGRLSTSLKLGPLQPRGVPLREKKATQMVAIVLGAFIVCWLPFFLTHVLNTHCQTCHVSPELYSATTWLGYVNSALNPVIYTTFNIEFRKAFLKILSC
Chain of Histamine H1 receptor (P35367 whole entry): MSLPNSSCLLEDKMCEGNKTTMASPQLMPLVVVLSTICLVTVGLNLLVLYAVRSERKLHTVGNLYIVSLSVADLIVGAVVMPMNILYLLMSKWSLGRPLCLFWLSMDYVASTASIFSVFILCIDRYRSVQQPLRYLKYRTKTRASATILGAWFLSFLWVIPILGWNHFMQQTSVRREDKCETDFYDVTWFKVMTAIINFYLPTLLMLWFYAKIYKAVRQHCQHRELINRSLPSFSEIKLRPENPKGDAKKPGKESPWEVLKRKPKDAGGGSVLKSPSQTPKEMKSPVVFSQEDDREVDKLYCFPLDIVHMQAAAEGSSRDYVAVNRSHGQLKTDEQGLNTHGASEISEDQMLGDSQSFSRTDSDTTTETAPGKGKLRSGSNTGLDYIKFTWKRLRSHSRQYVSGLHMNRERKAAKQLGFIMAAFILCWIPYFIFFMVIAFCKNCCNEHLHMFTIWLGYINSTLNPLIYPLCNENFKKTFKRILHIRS
Chain of Histamine H4 receptor (Q9H3N8 whole entry): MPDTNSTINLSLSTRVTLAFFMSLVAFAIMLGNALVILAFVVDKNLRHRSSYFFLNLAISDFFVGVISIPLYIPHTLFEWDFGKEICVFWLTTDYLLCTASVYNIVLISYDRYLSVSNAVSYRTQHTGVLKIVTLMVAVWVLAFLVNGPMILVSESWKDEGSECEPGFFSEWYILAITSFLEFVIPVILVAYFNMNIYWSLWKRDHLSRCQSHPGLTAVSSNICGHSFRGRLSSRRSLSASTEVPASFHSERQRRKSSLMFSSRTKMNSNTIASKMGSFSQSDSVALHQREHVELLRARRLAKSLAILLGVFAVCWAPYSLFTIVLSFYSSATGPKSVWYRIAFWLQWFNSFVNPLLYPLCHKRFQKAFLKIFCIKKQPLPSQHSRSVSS
Chain of D(2) dopamine receptor (P14416 whole entry): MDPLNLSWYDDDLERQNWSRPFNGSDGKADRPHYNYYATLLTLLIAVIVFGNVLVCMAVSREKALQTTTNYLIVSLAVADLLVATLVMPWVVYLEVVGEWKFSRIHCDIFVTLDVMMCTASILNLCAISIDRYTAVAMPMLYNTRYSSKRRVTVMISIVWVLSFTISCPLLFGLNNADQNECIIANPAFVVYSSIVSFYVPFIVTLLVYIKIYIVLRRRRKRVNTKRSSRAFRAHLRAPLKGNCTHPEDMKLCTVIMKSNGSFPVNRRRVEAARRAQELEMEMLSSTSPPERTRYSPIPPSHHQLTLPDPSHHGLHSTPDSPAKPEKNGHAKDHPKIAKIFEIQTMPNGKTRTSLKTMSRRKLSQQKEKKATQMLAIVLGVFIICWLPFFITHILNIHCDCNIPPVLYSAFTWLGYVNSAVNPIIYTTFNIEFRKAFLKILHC

On to `C#CCNC1CCc2ccc(OCCCN3CCCCC3)cc21` (centres undefined), for which, at Histamine H3 receptor, the pKi was 8.17. Also, the Ki on Histamine H3 receptor is under 0.01 µM. Also, the pIC50 in data set [1] is under 4.00; in data set [2] it was 5.10; in data set [6], under 4.30; in [7], 4.98. Moreover, the Ratio IC50 was over 13 in the data set filed under Homo sapiens [3] and over 4.8 in the data set listed under Homo sapiens [8]. The viability at 24 h, 10 µM in data set [4] stood at 100%. Moreover, the viability at 24 h, 1 µM in [5] came out at 84%. The inhibition in data set [9] and in data set [10] was 47% in each case.
With `C#CCNC1CCc2cc(OCCCN3CCCCC3)ccc21` (centres undefined), the pKi on Histamine H3 receptor was 8.59; on Histamine H1 receptor it was under 5.00; on Histamine H4 receptor, under 4.00; on D(2) dopamine receptor, under 5.00; at D(3) dopamine receptor, under 5.00. Moreover, on Histamine H3 receptor, the Ki was under 0.01 µM. Moreover, the pIC50 in data set [1] was under 4.00; in data set [2], 6.00; in [11] it was under 4.00; in data set [6], under 5.00; in data set [12], 5.98; in data set [7] it was 6.59. The Ratio IC50 in the data set filed under Homo sapiens [3] is over 100; in the data set filed under Homo sapiens [13], over 95; in the data set listed under Homo sapiens [8], over 39. Also, the viability at 24 h, 10 µM in data set [4] came out at 95.6%. Moreover, the viability at 24 h, 1 µM in data set [5] was determined as 89.7%. Moreover, the inhibition amounted to 57% in [9] and 32% in [10]. Further, the “inhibition (INH)” value in data set [14] was “Tde”.
In turn, `C#CCN[C@@H]1CCc2ccc(OC(=O)N(C)CC)cc21` [LADOSTIGIL] gave a pIC50 in data set [15] of under 3.00.
In the case of `C[n+]1ccc(-c2ccccc2)cc1`, in [16], the viability at 24 h, 1000 µM amounted to 1.8%.
